Reference: article PMC10412597, “Small molecule branched-chain ketoacid dehydrogenase kinase (BDK) inhibitors with opposing effects on BDK protein levels” (Nature Communications, 2023)

Assays:
[1] = target: T1, Acetylcholinesterase (Homo sapiens, UniProt P22303); parameters: Cerep Bioprint off-target panel, enzyme or kinase inhibition; conditions: inhibitor
T1 construct: gene ACHE
Experimental: (§1) To discover a potent and selective BDK inhibitor, a subset of the Pfizer compound collection was screened. […] Off target activity was assessed in both CEREP and kinase panels (Supplementary Tables 2, 3).

[2] = target: T2, Aurora A Kinase (Homo sapiens, UniProt O14965); parameters: Cerep Bioprint off-target panel, enzyme or kinase inhibition; conditions: inhibitor
T2 construct: gene AURKA
T2 sequence (O14965 whole entry): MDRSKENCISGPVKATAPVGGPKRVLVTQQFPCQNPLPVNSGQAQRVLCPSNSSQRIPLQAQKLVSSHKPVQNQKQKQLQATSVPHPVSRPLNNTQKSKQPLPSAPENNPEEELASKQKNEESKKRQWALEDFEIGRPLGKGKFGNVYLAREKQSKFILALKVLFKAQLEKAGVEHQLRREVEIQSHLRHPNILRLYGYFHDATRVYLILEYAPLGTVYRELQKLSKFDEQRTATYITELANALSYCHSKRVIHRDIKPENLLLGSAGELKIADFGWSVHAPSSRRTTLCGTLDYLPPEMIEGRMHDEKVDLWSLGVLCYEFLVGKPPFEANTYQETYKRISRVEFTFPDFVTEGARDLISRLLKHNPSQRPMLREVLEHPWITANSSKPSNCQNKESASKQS
Experimental: as §1

[3] = target: T3, EGFR Kinase (Homo sapiens, UniProt P00533); parameters: Cerep Bioprint off-target panel, enzyme or kinase inhibition; conditions: inhibitor
T3 construct: kinase
T3 sequence (P00533 whole entry): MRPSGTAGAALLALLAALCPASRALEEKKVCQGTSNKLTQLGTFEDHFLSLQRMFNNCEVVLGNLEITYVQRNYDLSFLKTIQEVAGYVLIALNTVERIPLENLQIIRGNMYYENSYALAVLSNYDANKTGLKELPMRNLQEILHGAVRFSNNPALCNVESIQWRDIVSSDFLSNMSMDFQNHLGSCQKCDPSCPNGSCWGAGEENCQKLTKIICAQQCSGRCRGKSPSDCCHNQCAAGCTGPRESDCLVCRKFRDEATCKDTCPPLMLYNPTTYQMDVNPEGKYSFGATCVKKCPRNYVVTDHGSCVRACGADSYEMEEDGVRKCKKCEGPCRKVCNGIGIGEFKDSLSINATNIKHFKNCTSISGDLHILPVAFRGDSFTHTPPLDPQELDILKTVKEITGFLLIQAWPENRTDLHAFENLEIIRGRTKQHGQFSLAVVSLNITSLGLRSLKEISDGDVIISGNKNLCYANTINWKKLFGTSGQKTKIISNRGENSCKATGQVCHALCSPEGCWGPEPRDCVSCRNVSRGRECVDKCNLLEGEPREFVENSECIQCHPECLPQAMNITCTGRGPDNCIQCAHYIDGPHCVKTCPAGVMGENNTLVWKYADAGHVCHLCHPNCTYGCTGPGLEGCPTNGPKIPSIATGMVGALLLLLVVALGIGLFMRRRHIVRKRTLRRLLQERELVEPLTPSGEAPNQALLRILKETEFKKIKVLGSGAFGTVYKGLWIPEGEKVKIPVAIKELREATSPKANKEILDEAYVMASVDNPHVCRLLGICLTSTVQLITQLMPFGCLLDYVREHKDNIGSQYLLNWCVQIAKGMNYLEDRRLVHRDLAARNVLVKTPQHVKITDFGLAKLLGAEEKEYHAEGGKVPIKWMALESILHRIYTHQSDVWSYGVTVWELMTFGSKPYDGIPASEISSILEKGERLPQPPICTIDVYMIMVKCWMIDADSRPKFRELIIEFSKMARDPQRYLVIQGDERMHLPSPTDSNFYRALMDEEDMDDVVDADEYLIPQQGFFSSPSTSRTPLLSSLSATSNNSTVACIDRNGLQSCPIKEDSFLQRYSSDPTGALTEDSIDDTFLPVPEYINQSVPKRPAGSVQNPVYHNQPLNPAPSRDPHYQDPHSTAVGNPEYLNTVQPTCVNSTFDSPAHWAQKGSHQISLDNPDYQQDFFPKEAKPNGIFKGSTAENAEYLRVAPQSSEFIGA
Experimental: as §1

[4] = target: Kdr Kinase (VEGFR2) (Homo sapiens, UniProt P35968); parameters: Cerep Bioprint off-target panel, enzyme or kinase inhibition; conditions: inhibitor
Experimental: as §1

[5] = target: LCK (Homo sapiens, UniProt P06239); parameters: Cerep Bioprint off-target panel, enzyme or kinase inhibition; conditions: inhibitor
Experimental: as §1

[6] = target: T4, Monoamine Oxidase A (Homo sapiens, UniProt P21397); parameters: Cerep Bioprint off-target panel, enzyme or kinase inhibition; conditions: inhibitor
T4 construct: gene MAOA
Experimental: as §1

[7] = target: T5, P38alpha MAP Kinase (Homo sapiens, UniProt Q16539); parameters: Cerep Bioprint off-target panel, enzyme or kinase inhibition; conditions: inhibitor
T5 construct: gene MAPK14
Experimental: as §1

[8] = target: T6, Phosphodiesterase 3B (Homo sapiens, UniProt Q13370); parameters: Cerep Bioprint off-target panel, enzyme or kinase inhibition; conditions: inhibitor
T6 construct: gene PDE3B
T6 sequence (Q13370 whole entry): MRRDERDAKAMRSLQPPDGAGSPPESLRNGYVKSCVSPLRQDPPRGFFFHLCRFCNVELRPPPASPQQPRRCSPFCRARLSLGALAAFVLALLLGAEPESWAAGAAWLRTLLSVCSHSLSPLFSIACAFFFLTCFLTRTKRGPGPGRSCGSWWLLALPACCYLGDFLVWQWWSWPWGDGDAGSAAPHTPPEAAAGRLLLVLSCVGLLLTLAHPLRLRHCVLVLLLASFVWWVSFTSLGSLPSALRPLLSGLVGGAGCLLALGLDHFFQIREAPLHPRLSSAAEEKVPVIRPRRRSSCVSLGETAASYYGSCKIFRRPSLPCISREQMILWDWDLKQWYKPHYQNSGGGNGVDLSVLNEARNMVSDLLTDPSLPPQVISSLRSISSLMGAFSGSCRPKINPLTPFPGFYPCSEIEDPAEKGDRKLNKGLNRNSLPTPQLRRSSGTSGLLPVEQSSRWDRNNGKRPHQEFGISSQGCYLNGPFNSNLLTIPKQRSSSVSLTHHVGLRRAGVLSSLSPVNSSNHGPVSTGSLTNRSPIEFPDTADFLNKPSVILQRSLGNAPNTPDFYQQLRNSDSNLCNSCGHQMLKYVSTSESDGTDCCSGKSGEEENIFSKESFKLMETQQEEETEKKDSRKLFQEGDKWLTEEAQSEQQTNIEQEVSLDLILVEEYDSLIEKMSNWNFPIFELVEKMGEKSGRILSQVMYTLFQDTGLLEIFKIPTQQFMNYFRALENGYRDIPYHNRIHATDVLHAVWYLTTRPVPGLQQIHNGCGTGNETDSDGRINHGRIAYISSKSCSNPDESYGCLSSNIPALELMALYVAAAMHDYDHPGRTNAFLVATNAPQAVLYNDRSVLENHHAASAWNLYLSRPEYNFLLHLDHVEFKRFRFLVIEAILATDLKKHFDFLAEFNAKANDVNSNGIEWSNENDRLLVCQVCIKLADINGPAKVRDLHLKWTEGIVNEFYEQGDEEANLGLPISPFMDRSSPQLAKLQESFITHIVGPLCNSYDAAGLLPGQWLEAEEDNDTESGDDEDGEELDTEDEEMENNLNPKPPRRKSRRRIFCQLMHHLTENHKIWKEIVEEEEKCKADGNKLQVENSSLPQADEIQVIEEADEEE
Experimental: as §1

[9] = target: T7, Phosphodiesterase 4D2 (Homo sapiens, UniProt Q08499); parameters: Cerep Bioprint off-target panel, enzyme or kinase inhibition; conditions: inhibitor
T7 construct: gene PDE4D; isoform 4D2
Experimental: as §1

[10] = target: SRC (Homo sapiens, UniProt P12931); parameters: Cerep Bioprint off-target panel, enzyme or kinase inhibition; conditions: inhibitor
Chain of SRC (P12931 whole entry): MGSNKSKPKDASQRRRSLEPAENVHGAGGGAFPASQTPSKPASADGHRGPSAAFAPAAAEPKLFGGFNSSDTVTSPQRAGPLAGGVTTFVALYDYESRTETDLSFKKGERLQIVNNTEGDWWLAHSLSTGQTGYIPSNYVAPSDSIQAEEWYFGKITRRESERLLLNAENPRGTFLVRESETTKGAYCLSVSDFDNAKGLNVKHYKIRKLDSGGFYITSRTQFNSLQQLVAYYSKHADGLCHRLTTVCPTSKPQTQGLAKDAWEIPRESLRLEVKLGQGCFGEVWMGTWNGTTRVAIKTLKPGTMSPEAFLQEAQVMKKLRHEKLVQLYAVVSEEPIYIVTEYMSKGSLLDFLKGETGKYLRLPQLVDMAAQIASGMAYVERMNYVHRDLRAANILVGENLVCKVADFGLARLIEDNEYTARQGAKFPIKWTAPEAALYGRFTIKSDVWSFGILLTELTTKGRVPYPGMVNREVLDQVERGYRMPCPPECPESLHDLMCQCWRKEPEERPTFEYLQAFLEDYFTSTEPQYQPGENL
Experimental: as §1

[11] = target: T8, Androgen Receptor (Homo sapiens, UniProt P10275); parameters: Cerep Bioprint off-target panel, ligand binding inhibition; conditions: binder
T8 construct: gene AR
Experimental: as §1

[12] = target: T9, Choline Transporter (Homo sapiens, UniProt Q9GZV3); parameters: Cerep Bioprint off-target panel, ligand binding inhibition; conditions: binder
T9 construct: gene SLC5A7
T9 sequence (Q9GZV3 whole entry): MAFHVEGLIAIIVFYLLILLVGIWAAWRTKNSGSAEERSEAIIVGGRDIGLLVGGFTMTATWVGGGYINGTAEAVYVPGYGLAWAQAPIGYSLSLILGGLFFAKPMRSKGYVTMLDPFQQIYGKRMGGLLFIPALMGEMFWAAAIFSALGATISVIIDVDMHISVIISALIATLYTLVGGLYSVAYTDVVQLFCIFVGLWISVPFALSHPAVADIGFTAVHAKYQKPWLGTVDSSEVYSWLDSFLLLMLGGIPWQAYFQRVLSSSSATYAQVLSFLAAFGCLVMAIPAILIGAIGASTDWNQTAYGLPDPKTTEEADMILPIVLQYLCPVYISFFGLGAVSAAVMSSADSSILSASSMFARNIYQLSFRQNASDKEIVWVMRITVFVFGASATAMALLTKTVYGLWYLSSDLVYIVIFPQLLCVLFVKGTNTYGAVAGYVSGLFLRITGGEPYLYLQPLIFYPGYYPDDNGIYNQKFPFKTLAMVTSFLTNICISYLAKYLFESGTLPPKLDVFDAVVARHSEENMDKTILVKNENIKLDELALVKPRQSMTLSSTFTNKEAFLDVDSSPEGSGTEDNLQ
Experimental: as §1

[13] = target: T10, Dopamine Transporter (Homo sapiens, UniProt Q01959); parameters: Cerep Bioprint off-target panel, ligand binding inhibition; conditions: binder
T10 construct: gene SLC6A3
T10 sequence (Q01959 whole entry): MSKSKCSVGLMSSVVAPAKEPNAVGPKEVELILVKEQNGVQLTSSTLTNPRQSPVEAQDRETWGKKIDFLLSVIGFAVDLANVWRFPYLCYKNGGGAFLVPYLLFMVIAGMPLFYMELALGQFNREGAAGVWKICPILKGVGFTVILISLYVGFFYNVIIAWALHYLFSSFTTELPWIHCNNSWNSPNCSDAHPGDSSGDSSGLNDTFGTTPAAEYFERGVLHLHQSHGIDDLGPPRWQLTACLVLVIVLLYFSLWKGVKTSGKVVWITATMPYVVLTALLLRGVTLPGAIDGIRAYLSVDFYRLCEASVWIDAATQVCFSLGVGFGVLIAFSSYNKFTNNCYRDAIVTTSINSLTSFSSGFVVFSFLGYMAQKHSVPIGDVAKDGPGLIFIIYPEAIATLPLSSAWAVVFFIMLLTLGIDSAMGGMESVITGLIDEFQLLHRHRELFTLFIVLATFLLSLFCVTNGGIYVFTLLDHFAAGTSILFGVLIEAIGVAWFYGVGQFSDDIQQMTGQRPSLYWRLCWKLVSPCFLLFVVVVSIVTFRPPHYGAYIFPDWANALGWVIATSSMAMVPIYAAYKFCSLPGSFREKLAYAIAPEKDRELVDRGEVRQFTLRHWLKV
Experimental: as §1

[14] = target: T11, GABAa1 Receptor (Homo sapiens, UniProt P14867+P18507+P47870); parameters: Cerep Bioprint off-target panel, ligand binding inhibition; conditions: binder
T11 construct: gene GABRA1; alpha1
Experimental: as §1

[15] = target: T12, Glucocorticoid Receptor (Homo sapiens, UniProt P04150); parameters: Cerep Bioprint off-target panel, ligand binding inhibition; conditions: binder
T12 construct: gene NR3C1
Experimental: as §1

[16] = target: T13, Nicotinic Acetylcholine Receptor (alpha4, beta2 subunit containing) (Homo sapiens, UniProt P17787+P43681); parameters: Cerep Bioprint off-target panel, ligand binding inhibition; conditions: binder
T13 construct: gene CHRNB2
Experimental: as §1

[17] = target: T14, Norepinephrine Transporter (Homo sapiens, UniProt P23975); parameters: Cerep Bioprint off-target panel, ligand binding inhibition; conditions: binder
T14 construct: gene SLC6A2
Experimental: as §1

[18] = target: T15, PPAR-gamma (Homo sapiens, UniProt P37231); parameters: Cerep Bioprint off-target panel, ligand binding inhibition; conditions: binder
T15 construct: gene PPARG
T15 sequence (P37231 1-505): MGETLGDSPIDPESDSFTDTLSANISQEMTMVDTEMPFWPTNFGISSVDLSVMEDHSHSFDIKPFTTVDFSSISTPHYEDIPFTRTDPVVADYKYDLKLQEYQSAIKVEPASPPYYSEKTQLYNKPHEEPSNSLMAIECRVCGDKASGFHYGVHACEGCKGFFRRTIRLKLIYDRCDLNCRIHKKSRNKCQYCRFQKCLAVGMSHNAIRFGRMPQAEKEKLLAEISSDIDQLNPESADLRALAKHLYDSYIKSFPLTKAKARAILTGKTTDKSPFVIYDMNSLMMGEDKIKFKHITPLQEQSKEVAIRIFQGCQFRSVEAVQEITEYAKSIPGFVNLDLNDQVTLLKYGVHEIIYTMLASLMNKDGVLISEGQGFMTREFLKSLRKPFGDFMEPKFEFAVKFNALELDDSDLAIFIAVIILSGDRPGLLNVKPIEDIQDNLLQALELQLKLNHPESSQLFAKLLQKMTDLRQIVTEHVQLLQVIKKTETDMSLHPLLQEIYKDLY
Experimental: as §1

[19] = target: T16, Serotonin 5-HT3 (Homo sapiens, UniProt P46098); parameters: Cerep Bioprint off-target panel, ligand binding inhibition; conditions: binder
T16 construct: gene HTR3A
Experimental: as §1

[20] = target: T17, Serotonin Transporter (Homo sapiens, UniProt P31645); parameters: Cerep Bioprint off-target panel, ligand binding inhibition; conditions: binder
T17 construct: gene SLC6A4
Experimental: as §1

[21] = target: MAP3K11 (Homo sapiens, UniProt Q16584); parameters: Invitrogen Lantha screen kinase binding, per cent inhibition of binding; conditions: 10 µM, binder
Experimental: as §1

[22] = target: MKNK2 (Homo sapiens, UniProt Q9HBH9); parameters: Invitrogen Lantha screen kinase binding, per cent inhibition of binding; conditions: 10 µM, binder
Experimental: as §1

[23] = target: PKN2 (Homo sapiens, UniProt Q16513); parameters: Invitrogen Lantha screen kinase binding, per cent inhibition of binding; conditions: 10 µM, binder
Experimental: as §1

T1 sequence (P22303 whole entry): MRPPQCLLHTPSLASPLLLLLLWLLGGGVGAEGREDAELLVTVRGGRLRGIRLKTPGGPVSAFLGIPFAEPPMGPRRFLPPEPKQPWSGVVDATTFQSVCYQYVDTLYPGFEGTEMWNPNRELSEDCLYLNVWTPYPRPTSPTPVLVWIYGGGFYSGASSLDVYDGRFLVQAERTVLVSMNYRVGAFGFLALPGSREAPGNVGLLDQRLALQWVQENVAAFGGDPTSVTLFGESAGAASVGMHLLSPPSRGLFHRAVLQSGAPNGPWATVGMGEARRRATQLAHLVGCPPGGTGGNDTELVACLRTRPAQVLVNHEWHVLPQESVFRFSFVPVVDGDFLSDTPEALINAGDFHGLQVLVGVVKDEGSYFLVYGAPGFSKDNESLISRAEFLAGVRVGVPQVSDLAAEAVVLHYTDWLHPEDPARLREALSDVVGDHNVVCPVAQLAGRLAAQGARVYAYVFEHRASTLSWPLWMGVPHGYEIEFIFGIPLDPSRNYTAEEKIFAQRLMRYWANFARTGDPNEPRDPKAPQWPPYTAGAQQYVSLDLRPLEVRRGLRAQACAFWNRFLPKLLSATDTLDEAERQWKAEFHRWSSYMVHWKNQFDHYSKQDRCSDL

Compound: O=C(O)c1sc2cc(F)sc2c1Cl [PF-07208254, 3-chloro-5-fluorothieno[3,2-b]thiophene-2-carboxylic acid]
- % Inhibition PF-07208254 ([1]; 100 µM): -4%
- % Inhibition PF-07208254 ([2]; 100 µM): 15%
- % Inhibition PF-07208254 ([3]; 100 µM): 19%
- % Inhibition PF-07208254 ([4]; 100 µM): 57%
- % Inhibition PF-07208254 ([5]; 100 µM): -4%
- % Inhibition PF-07208254 ([6]; 100 µM): 0%
- % Inhibition PF-07208254 ([7]; 100 µM): 35%
- % Inhibition PF-07208254 ([8]; 100 µM): -9%
- % Inhibition PF-07208254 ([9]; 100 µM): -11%
- % Inhibition PF-07208254 ([10]; 100 µM): 11%
- % Inhibition (binding) PF-07208254 ([11]; 100 µM): -4%
- % Inhibition (binding) PF-07208254 ([12]; 100 µM): -15%
- % Inhibition (binding) PF-07208254 ([13]; 100 µM): 7%
- % Inhibition (binding) PF-07208254 ([14]; 100 µM): -12%
- % Inhibition (binding) PF-07208254 ([15]; 100 µM): 4%
- % Inhibition (binding) PF-07208254 ([16]; 100 µM): -6%
- % Inhibition (binding) PF-07208254 ([17]; 100 µM): -15%
- % Inhibition (binding) PF-07208254 ([18]; 100 µM): 62%
- % Inhibition (binding) PF-07208254 ([19]; 100 µM): -14%
- % Inhibition (binding) PF-07208254 ([20]; 100 µM): -3%
- Lantha Binding % Inhibition PF-07208254 [21]: 6.8%
- Lantha Binding % Inhibition PF-07208254 [22]: 11.8%
- Lantha Binding % Inhibition PF-07208254 [23]: 8.1%

Compound: CCC1(COc2ccc(-c3csc(-c4ccccc4C(=O)O)n3)cn2)CC1 [PF-07247685, 2-(4-{6-[(1-ethylcyclopropyl)methoxy]pyridin-3-yl}-1,3-thiazol-2-yl)benzoic acid]
- % Inhibition PF-07247685 ([1]; 10 µM): -4%
- % Inhibition PF-07247685 ([2]; 10 µM): -7%
- % Inhibition PF-07247685 ([3]; 10 µM): -6%
- % Inhibition PF-07247685 ([4]; 10 µM): -11%
- % Inhibition PF-07247685 ([5]; 10 µM): -2%
- % Inhibition PF-07247685 ([6]; 10 µM): 12%
- % Inhibition PF-07247685 ([7]; 10 µM): 3%
- % Inhibition PF-07247685 ([8]; 10 µM): -16%
- % Inhibition PF-07247685 ([9]; 10 µM): -24%
- % Inhibition PF-07247685 ([10]; 10 µM): -8%
- % Inhibition (binding) PF-07247685 ([11]; 10 µM): -8%
- % Inhibition (binding) PF-07247685 ([12]; 10 µM): -12%
- % Inhibition (binding) PF-07247685 ([13]; 10 µM): -1%
- % Inhibition (binding) PF-07247685 ([14]; 10 µM): -21%
- % Inhibition (binding) PF-07247685 ([15]; 10 µM): 0%
- % Inhibition (binding) PF-07247685 ([16]; 10 µM): -4%
- % Inhibition (binding) PF-07247685 ([17]; 10 µM): 6%
- % Inhibition (binding) PF-07247685 ([18]; 10 µM): 21%
- % Inhibition (binding) PF-07247685 ([19]; 10 µM): 0%
- % Inhibition (binding) PF-07247685 ([20]; 10 µM): 2%
- Lantha Binding % Inhibition PF-07247685 [21]: -2.2%
- Lantha Binding % Inhibition PF-07247685 [22]: 1.2%
- Lantha Binding % Inhibition PF-07247685 [23]: -1.7%
